Test results from ChEMBL document CHEMBL1132687, “Synthesis and enantiopharmacology of new AMPA-kainate receptor agonists” (J Med Chem, 1999).
Calls of active or inactive are those of the source. The rule behind the calls is not given here.

Tests used:
CHO = assay: Affinity at Metabotropic glutamate receptor (Glu1-alpha,Glu2,Glu4a) expressed in CHO cells; Not significant activity up to 1 mM concentration; format: cell-based
[1] = molecular target: Glutamate receptor ionotropic, kainate; assay: Binding affinity against Ionotropic glutamate receptor kainate using [3H]KAIN as radioligand.; format: protein-complex assay
Rattus norvegicus [2] = species on record: Rattus norvegicus; assay: Electropharmacology on rat cortical slice preparation for EAA-evoked depolarizations;; format: functional
[3] = molecular target: Glutamate receptor ionotropic, AMPA (Rattus norvegicus, UniProt P19490+P19491+P19492+P19493)
Description: Binding affinity against Ionotropic glutamate receptor AMPA using [3H]AMPA as radioligand.

Rattus norvegicus [4] = species on record: Rattus norvegicus; assay: Electropharmacology on rat cortical slice preparation for EAA-evoked depolarizations; Depolarization evoked by the compound is not antagonised by 5 uM of NBQX but fully antagonised by 20 uM of NBQX.; format: functional
Rattus norvegicus [5] = species on record: Rattus norvegicus; assay: Electropharmacology on rat cortical slice preparation for EAA-evoked depolarizations; Depolarization evoked by the compound is antagonised by 10 uM of CPP.; format: functional
Glutamate NMDA receptor = assay: Binding affinity against N-methyl-D-aspartate glutamate receptor using [3H]-CPP as radioligand.; format: protein-complex assay
[6] = The dissociation constant at alpha-carboxyl group in water at 20 degree Centigrade. (evaluated by Uyeno., Y et. al.); format: ADME; settings: read-out: pKa1
[7] = The dissociation constant at ammonium group in water at 20 degree Centigrade. (evaluated by Uyeno., Y et. al.); format: ADME; settings: read-out: pKa3
[8] = The dissociation constant at omega-carboxyl or hydroxyl group iin water at 20 degree Centigrade. (evaluated by Uyeno., Y et. al.); format: ADME; settings: read-out: pKa2
Rattus norvegicus [9] = species on record: Rattus norvegicus; assay: Electropharmacology on rat cortical slice preparation for EAA-evoked depolarizations; Depolarization evoked by the compound is fully antagonised by 5 uM of NBQX.; format: functional
physchem [10] = settings: water
physchem [11] = settings: water; remark: listed apart in the source
Description: The dissociation constant at omega-carboxyl or hydroxyl group in water at 20 degree Centigrade.

physchem [12] = settings: water; remark: listed apart in the source
Rattus norvegicus [13] = species on record: Rattus norvegicus; assay: Electropharmacology on rat cortical slice preparation for EAA-evoked depolarizations;Depolarization evoked by the compound is fully antagonised by 5 uM of NBQX.; format: functional
Rattus norvegicus [14] = species on record: Rattus norvegicus; assay: Electropharmacology on rat cortical slice preparation for EAA-evoked depolarizations; Depolarization evoked by the compound is partially antagonised by 5 uM of NBQX and fully antagonised by 20 uM of NBQX.; format: functional
[15] = The dissociation constant at ammonium group in water at 20 degree Centigrade; format: ADME; settings: read-out: pKa3
Rattus norvegicus [16] = species on record: Rattus norvegicus; assay: Electropharmacology on rat cortical slice preparation for EAA-evoked depolarizations;Depolarization evoked by the compound is partially antagonised by 5 uM of NBQX and fully antagonised by 20 uM of NBQX.; format: functional

In the case of `O=C(O)C1=NO[C@H]2CN[C@H](C(=O)O)[C@@H]12` (stereo in doubt; (-)-6) [listing 1 of 2 here], the Activity (CHO) is reported as “inactive”.
In the case of `O=C(O)C1=NO[C@H]2[C@@H]1CN[C@@H]2C(=O)O` (stereo in doubt; (+)-7) [listing 1 of 2 here], the Activity (CHO) is reported as “inactive”.
For `O=C(O)C1=NO[C@H]2CN[C@H](C(=O)O)[C@@H]12` (stereo in doubt; (+)-6) [listing 1 of 2 here], the IC50 [1] was > 100 µM, the EC50 (Rattus norvegicus [2]) was > 1000 µM and the IC50 [3] was > 100 µM.
With `O=C(O)C1=NO[C@H]2CN[C@H](C(=O)O)[C@@H]12` (racemic) [listing 1 of 2 here] the Activity (CHO) was “inactive”.
`C=C(C)[C@H]1CN[C@H](C(=O)O)[C@H]1CC(=O)O` [KAINIC ACID] showed an EC50 (Rattus norvegicus [4]) of 25 µM.
With `O=C1NO[C@H]2CN[C@H](C(=O)O)[C@@H]12` (racemic) the IC50 [1] was 7.9 µM, the Activity (CHO) was “inactive” and the EC50 (Rattus norvegicus [5]) was 1000 µM. The IC50 [3] was 42.6 µM and the IC50 (Glutamate NMDA receptor) was > 100 µM.
With `O=C(O)C1=NO[C@H]2[C@@H]1CN[C@@H]2C(=O)O` (stereo in doubt; (-)-7) [listing 1 of 2 here] the IC50 [1] was > 100 µM, the EC50 (Rattus norvegicus [2]) was > 1000 µM and the IC50 [3] was > 100 µM. The IC50 (Glutamate NMDA receptor) was > 100 µM.
For `O=C(O)C1=NO[C@H]2CN[C@H](C(=O)O)[C@@H]12` (stereo in doubt; (+)-6) [listing 2 of 2 here], the Activity (CHO) was “inactive”.
For `N[C@@H](CCC(=O)O)C(=O)O` [GLUTAMIC ACID], the pKa [6] was 2.39, the pKa [7] was 9.54 and the pKa [8] was 4.21.
`O=C(O)C1=NO[C@H]2[C@@H]1CN[C@@H]2C(=O)O` (stereo in doubt; (+)-7) [listing 2 of 2 here] gave an IC50 [1] of 67 µM, an EC50 (Rattus norvegicus [9]) of 251 µM and an IC50 [3] of 11.2 µM.
In the case of `O=C(O)C1=NO[C@H]2[C@@H]1CN[C@@H]2C(=O)O` (stereo in doubt; (-)-7) [listing 2 of 2 here], the Activity (CHO) is reported as “inactive”.
With `O=C(O)C1=NO[C@H]2[C@@H]1CN[C@@H]2C(=O)O` (racemic) [listing 1 of 2 here] the Activity (CHO) was “inactive”.
For `O=C1NO[C@H]2[C@@H]1CN[C@@H]2C(=O)O` (racemic), the IC50 [1] was 45.3 µM, the pKa (physchem [10]) was 8.3 and the Activity (CHO) was “inactive”. It also gave an EC50 (Rattus norvegicus [5]) of 1000 µM, a pKa (physchem [11]) of 5.1 and a pKa (physchem [12]) of 2. The IC50 [3] was 34.9 µM and the IC50 (Glutamate NMDA receptor) was > 100 µM.
With `O=C(O)C1=NO[C@H]2[C@@H]1CN[C@@H]2C(=O)O` (racemic) [listing 2 of 2 here] the pKa (physchem [10]) was 7.3, the pKa (physchem [11]) was 2.6 and the pKa (physchem [12]) was < 2. It also gave an EC50 (Rattus norvegicus [13]) of 284 µM.
`CN[C@H](CC(=O)O)C(=O)O` [N-METHYL-D-ASPARTIC ACID (NMDA)] showed an EC50 (Rattus norvegicus [5]) of 11 µM.
In the case of `O=C(O)C1=NO[C@H]2CN[C@H](C(=O)O)[C@@H]12` (racemic) [listing 2 of 2 here], the EC50 (Rattus norvegicus [14]) is reported as 5.4 µM, the pKa (physchem [11]) is reported as 2.15 and the pKa (physchem [12]) is reported as < 2. For the same compound, the pKa [15] was 7.4.
In the case of `O=C(O)C1=NO[C@H]2CN[C@H](C(=O)O)[C@@H]12` (stereo in doubt; (-)-6) [listing 2 of 2 here], the IC50 [1] is reported as 0.23 µM, the EC50 (Rattus norvegicus [16]) is reported as 3.5 µM and the IC50 [3] is reported as 0.54 µM.
